Data taken from patent US12583826B2, “[(1,5-diphenyl-1H-1,2,4-triazol-3-yl)oxy]acetic acid derivatives and salts thereof, crop protection compositions comprising them, methods for producing them and use thereof as safeners” (Bayer Aktiengesellschaft, priority 2019, dated 2026).

Experiments:
[1] = system: summer wheat (TRZAS; cv. Triso); assay: Absolute action: reduction of damage by mesosulfuron-methyl on summer wheat, greenhouse post-emergence; assay type: in vivo; details: for Absolute reduction in herbicide damage (damage without safener minus damage with safener): mesosulfuron-methyl 20 g/ha; for Herbicide damage with compound of the formula (I): then mesosulfuron-methyl 20 g/ha, visual 0-100% scale, 14-21 days after application
Protocol: (§1) 2.1 Absolute Action of Selected Compounds of the Invention Using the Example of Reduction of Damage by Mesosulfuron-Methyl on Summer Wheat (TRZAS) The seeds of the crop plants to be treated are laid out in sandy loam in wood fiber or plastic pots (diameter ˜4 cm), covered with soil and grow in a greenhouse under good conditions for germination and growth. The trial plants were treated at the early leaf stage (BBCH10—BBCH12). In the course of this, the inventive compounds of the general formula (I) formulated in the form of wettable powders (WP) were sprayed onto the above-ground parts of the plants as an aqueous suspension with a water application rate corresponding to 800 l/ha with addition of wetting agent (e.g. 0.2% agrotin) in the specified dose. This was followed by the application of the herbicide. For this purpose, mesosulfuron-methyl, formulated in the form of water-dispersible granules (WG), was sprayed onto the above-ground parts of the plants in the form of an aqueous dispersion with a water application rate corresponding to 800 l/ha with addition of wetting agent (e.g. 0.2% agrotin) in a dose of 20 g/ha. The dose of the herbicide was chosen here such that it causes visually apparent damage (min. 30%, max. 75%) compared to untreated crop plants at the evaluation time on a control group of crop plants without safener treatment that were included in the same trial. After application, the plants were cultivated under good growth conditions in a greenhouse. The damage was visually assessed 14-21 days after application. The damage effect was assessed visually on a scale of 0-100% by comparison with untreated control plants, and averaged over 2-3 repeats per treatment. Examples: • 0%=no noticeable effect compared to the untreated plant • 20%=the treated plant population has 20% damage compared to the untreated control population (e.g. growth height, leaf damage, etc.) • 100%=treated plants completely damaged/killed.

[2] = system: summer barley (HORVS; cv. Montoya); assay: Absolute action: reduction of damage by mesosulfuron-methyl on summer barley, greenhouse post-emergence; assay type: in vivo; details: for Absolute reduction in damage (difference): mesosulfuron-methyl 20 g/ha, damage without minus with safener; for Herbicide damage with compound of the formula (I) (%): then mesosulfuron-methyl 20 g/ha, visual 0-100% scale, 14-21 days after application
Protocol: as §1, with “2.2 Absolute Action” for “2.1 Absolute Action”, “on Summer Barley (HORVS) The seeds” for “on Summer Wheat (TRZAS) The seeds”, “treated are aid out in” for “treated are laid out in”, “soil and grown in a” for “soil and grow in a”, “leaf stage (BBCE10-BBCH12). In the” for “leaf stage (BBCH10—BBCH12). In the”, “control population (e.g.: growth height,” for “control population (e.g. growth height,”

SMILES | Absolute reduction in herbicide damage (damage without safener minus damage with safener) ([1]; safener 125 g a.i./ha) [%] | Herbicide damage with compound of the formula (I) ([1]; safener 125 g a.i./ha) [%] | Absolute reduction in herbicide damage (damage without safener minus damage with safener) ([1]; safener 500 g a.i./ha) [%] | Herbicide damage with compound of the formula (I) ([1]; safener 500 g a.i./ha) [%] | Absolute reduction in damage (difference) ([2]; safener 125 g a.i./ha) [%] | Herbicide damage with compound of the formula (I) (%) ([2]; safener 125 g a.i./ha) | Absolute reduction in damage (difference) ([2]; safener 500 g a.i./ha) [%] | Herbicide damage with compound of the formula (I) (%) ([2]; safener 500 g a.i./ha)
COC(=O)COc1nc(-c2ccc(Cl)cc2Cl)n(-c2ccc(F)cc2F)n1 [I.43-38] | 30 | 33 | 33 | 30 | 26 | 37 | – | –
COC(=O)COc1nc(-c2ccc(Cl)cc2Cl)n(-c2ccc(Cl)cc2F)n1 [I.43-49, Methyl {[1-(4-chloro-2-fluorophenyl)-5-(2,4-dichlorophenyl)-1H-1,2,4-triazol-3-yl]oxy}acetate] | 36 | 27 | 40 | 23 | 30 | 33 | 33 | 30
CCOC(=O)COc1nc(-c2ccc(Cl)cc2Cl)n(-c2ccc(Cl)cc2Cl)n1 [I.44-32] | 53 | 10 | 56 | 7 | 33 | 27 | 47 | 13
CCOC(=O)COc1nc(-c2ccc(Cl)cc2Cl)n(-c2ccc(F)cc2F)n1 [I.44-38] | 53 | 10 | 60 | 3 | 43 | 17 | 50 | 10
CCOC(=O)COc1nc(-c2ccc(Cl)cc2Cl)n(-c2ccc(Cl)cc2F)n1 [I.44-49] | 43 | 10 | 46 | 7 | 30 | 30 | – | –
O=C(O)COc1nc(-c2ccc(Cl)cc2Cl)n(-c2ccc(F)cc2F)n1 [I.45-38] | 33 | 30 | 43 | 20 | 30 | 30 | 40 | 20
O=C(O)COc1nc(-c2ccc(Cl)cc2Cl)n(-c2ccc(Cl)cc2F)n1 [I.45-49, {[1-(4-Chloro-2-fluorophenyl)-5-(2,4-dichlorophenyl)-1H-1,2,4-triazol-3-yl]oxy}acetic acid] | 20 | 43 | 23 | 40 | 20 | 40 | 30 | 30
COC(=O)COc1nc(-c2ccc(Cl)cc2F)n(-c2ccccc2F)n1 [I.46-2] | 46 | 7 | – | – | 23 | 37 | 33 | 27
COC(=O)COc1nc(-c2ccc(Cl)cc2F)n(-c2ccc(Cl)cc2Cl)n1 [I.46-32] | 43 | 10 | 46 | 7 | 27 | 33 | 33 | 27
COC(=O)COc1nc(-c2ccc(Cl)cc2F)n(-c2ccc(F)cc2F)n1 [I.46-38] | 33 | 30 | – | – | 40 | 23 | 43 | 20
COC(=O)COc1nc(-c2ccc(Cl)cc2F)n(-c2ccc(Cl)cc2F)n1 [I.46-49] | 43 | 10 | – | – | 40 | 20 | 43 | 17
CCOC(=O)COc1nc(-c2ccc(Cl)cc2F)n(-c2ccc(Cl)cc2Cl)n1 [I.47-32] | 34 | 23 | 44 | 13 | – | – | 47 | 10
CCOC(=O)COc1nc(-c2ccc(Cl)cc2F)n(-c2ccc(F)cc2F)n1 [I.47-38] | 27 | 13 | – | – | 40 | 17 | 47 | 10
CCOC(=O)COc1nc(-c2ccc(Cl)cc2F)n(-c2ccc(Cl)cc2F)n1 [I.47-49] | 30 | 30 | – | – | 50 | 10 | – | –
O=C(O)COc1nc(-c2ccc(Cl)cc2F)n(-c2ccccc2F)n1 [I.48-2] | 27 | 3 | – | – | 20 | 27 | 27 | 20
O=C(O)COc1nc(-c2ccc(Cl)cc2F)n(-c2ccc(Cl)cc2Cl)n1 [I.48-32] | 30 | 30 | 37 | 23 | 40 | 20 | 50 | 10
O=C(O)COc1nc(-c2ccc(Cl)cc2F)n(-c2ccc(Cl)cc2F)n1 [I.48-49] | 37 | 23 | 40 | 20 | 40 | 20 | 60 | 0
